What is called IC50 is the concentration at which inhibition is half-maximal.

Read-outs that look alike come from different tables or passages of the source. Starred links: 1 amine or outer side, 2 acyl side, 3 side chain; linkers in the order of their positions; H or OH if unused. Non-standard residues stand in square brackets, D forms with d. Residues, ends and D or L forms follow the SMILES beside them. Groups on a side chain read outwards from the residue. *: point of attachment. Camptothecin(7-Et) = CCc1c2c(nc3ccccc13)-c1cc3c(c(=O)n1C2)COC(=O)[C@@]3(CC)O*; EuK = O=C(O)CC[C@H](NC(=O)N[C@@H](CCCCN*)C(=O)O)C(=O)O; PEG3 = NCCOCCOCCOCCC(=O)O; CO = O=C([*:1])[*:2]

Assay in all cases: Cytotoxicity in vitro in the presence and absence of elastase (MTT assay)
Format in all cases: cell-based

For one assay, the system named is HT29. Conditions: HT29 cells, 72 h incubation. The protocol:
(§1) Cultivation of cells was performed according to standard procedures with the media recommended by the provider. The cells, in a total volume of 100 μL, were seeded in a 96-well plate with a white bottom (#3610). After a 24 h incubation period at 37° C. and 5% CO2, the medium was exchanged by adding 90 μL fresh medium. The treatment started by adding the test compound in 10 μL of culture medium to the cells in triplicates. Concentrations ranging from 10^−5 M to 10^−13 M were chosen. Two identically treated sets of samples were prepared. One set was treated with the test compound alone, whereas to the second set the compound and 10 nM elastase (NE) was added followed by a 72 h incubation period at 37° C. and 5% CO2. The proliferation was detected using the MTT assay (ATCC). At the end of the incubation period the MTT reagent was added to all samples for 4h. Lysis of the cells followed by addition of the detergent was done overnight. The formed dye was detected at 570 nm. The proliferation of untreated but otherwise identically handled cells was defined as the 100% value. The dose response curves allowed the determination of the respective IC50 values. […]

A further assay deals with NCI-H292. Conditions: NCI-H292 cells, 72 h incubation. The protocol: as §1
The subject of a further assay is 786-O. To be noted: 786-O cells, 72 h incubation. The protocol:
as §1

For the next assay, the system named is SUM149PT. To be noted: SUM149PT cells, 72 h incubation. The protocol: as §1
The mark [1] stands for this setting: compound alone, read-out: IC50 without neutrophil elastase.
Where [2] appears, read: with 10 nM elastase (NE), read-out: IC50 with neutrophil elastase.

In the case of `CCCNC(=O)Nc1cccc(S(=O)(=O)Nc2cccc([C@@H](CC(=O)O)NC(=O)Nc3ccc(NC(=O)NCCOCCOCCOCCC(=O)N[C@@H](CC(=O)O)C(=O)N4CCC[C@H]4C(=O)N[C@H](C(=O)OCCCNC(=O)[C@H](Cc4ccccc4)NC(=O)[C@H](C)[C@@H](OC)[C@@H]4CCCN4C(=O)C[C@@H](OC)[C@H]([C@@H](C)CC)N(C)C(=O)[C@@H](NC(=O)[C@H](C(C)C)N(C)C)C(C)C)C(C)C)cc3)c2)c1` [Compound 30], the half-maximal inhibitory concentration (IC50) in the assay on HT29 (setting [1]) is 100 to 999 nM; with HT29 (setting [2]), 1 to 9.9 nM; with NCI-H292 (setting [1]), 10 to 99 nM; with NCI-H292 (setting [2]), 1 to 9.9 nM; in the assay on 786-O (setting [1]), 100 to 999 nM; in the assay with 786-O (setting [2]), 10 to 99 nM. The IC50 in the assay with SUM149PT (setting [1]) fell in the range of 10 to 99 nM; in the assay on SUM149PT (setting [2]), 1 to 9.9 nM.

For `CCc1c2c(nc3ccccc13)-c1cc3c(c(=O)n1C2)COC(=O)[C@@]3(CC)OC(=O)[C@@H](NC(=O)[C@@H]1CCCN1C(=O)[C@H](CC(=O)O)NC(=O)CCOCCOCCOCCNC(=O)[C@H](CCCCNC(=O)CCOCCOCCOCCNC(=O)NCCCC[C@H](NC(=O)N[C@@H](CCC(=O)O)C(=O)O)C(=O)O)NC(=O)CCOCCOCCOCCNC(=O)NCCCC[C@H](NC(=O)N[C@@H](CCC(=O)O)C(=O)O)C(=O)O)C(C)C` [Compound 7, heptasodium (4S)-4,11-diethyl-3,14-dioxo-3,4,12,14-tetrahydro-1H-pyrano[3′,4′:6,7]indolizino[1,2-b]quinolin-4-yl 1-[(2S)-15-{[N2,N6-bis(3S,7S)(1,3,7-tricarboxylato-5,13,26-trioxo-17,20,23-trioxa-4,6,12,14-tetraazahexacosan-26-yl)-L-lysyl]amino}-2-(carboxylatomethyl)-4-oxo-7,10,13-trioxa-3-azapentadecanan-1-oyl]-L-prolyl-L-valinate] ({EuK-CO-PEG3}-K([PEG3-CO-EuK])[PEG3]DPV-{Camptothecin(7-Et)}), the IC50 is > 1000 nM in the assay on HT29 (setting [1]); 10 to 99 nM in the assay on HT29 (setting [2]); 100 to 999 nM with NCI-H292 (setting [1]); 1 to 9.9 nM in the assay with NCI-H292 (setting [2]); 100 to 999 nM in the assay with 786-O (setting [1]); 1 to 9.9 nM with 786-O (setting [2]). The IC50 fell in the range of 100 to 999 nM in the assay on SUM149PT (setting [1]) and 1 to 9.9 nM in the assay with SUM149PT (setting [2]).

In the case of `CC(C)[C@H](NC(=O)[C@@H]1CCCN1C(=O)[C@H](CC(=O)O)NC(=O)CCOCCOCCOCCNC(=O)NCCCC[C@H](NC(=O)N[C@@H](CCC(=O)O)C(=O)O)C(=O)O)C(=O)N=S(C)(=O)Cc1cc2nc(c1)OCCCOc1cc(F)ccc1-c1cc(ncc1F)N2` (relative stereo) [Compound 9, tetrasodium 1-[(2S,23S,27S)-23,27,29-tricarboxylato-2-(carboxylatomethyl)-4,17,25-trioxo-7,10,13-trioxa-3,16,18,24,26-pentaazanonacosanan-1-oyl]-L-prolyl-N—[(R*)—{[15,19-difluoro-3,4-dihydro-2H,11H-10,6-(azeno)-12,16-(metheno)-1,5,11,13-benzodioxadiazacyclooctadecin-8-yl]methyl}(methyl)oxo-lambda6-sulfanylidene]-L-valinamide], the half-inhibitory concentration (IC50) in the assay with HT29 (setting [1]) is 100 to 999 nM; in the assay on HT29 (setting [2]), 1 to 9.9 nM; with NCI-H292 (setting [1]), 100 to 999 nM; in the assay on NCI-H292 (setting [2]), 1 to 9.9 nM; in the assay on 786-O (setting [1]), 100 to 999 nM; with 786-O (setting [2]), 1 to 9.9 nM. The IC50 with SUM149PT (setting [1]) was in the range of 100 to 999 nM; with SUM149PT (setting [2]) it was 1 to 9.9 nM.
